PMC5218480 (PLoS ONE, 2017)

Tested on: MV-4-11 cells
Test: Gene expression microarray analysis (Affymetrix PrimeView) and GSEA
Assay type: cell-based, human
Parameters: RFU PODN (11730768_x_at) / Fold change /veh PODN (11730768_x_at) / RFU LINC00158 (11744669_a_at) / Fold change /veh LINC00158 (11744669_a_at) / RFU DUSP10 (11751237_a_at) / Fold change /veh DUSP10 (11751237_a_at) / RFU ID3 (11757404_x_at) / Fold change /veh ID3 (11757404_x_at) / RFU PLEKHG5 (11737974_s_at) / Fold change /veh PLEKHG5 (11737974_s_at) / RFU LRRC4B (11730491_at) / Fold change /veh LRRC4B (11730491_at) / RFU GIMAP4 (11747438_a_at) / Fold change /veh GIMAP4 (11747438_a_at) / RFU KRT8 (11758183_x_at) / Fold change /veh KRT8 (11758183_x_at) / RFU CNN1 (11734310_a_at) / Fold change /veh CNN1 (11734310_a_at) / RFU VPS37D (11726825_at) / Fold change /veh VPS37D (11726825_at) / RFU C10orf10 (11716522_x_at) / Fold change /veh C10orf10 (11716522_x_at) / RFU KIR2DL2 /// KIR2DL4 /// KIR2DL5A /// KIR2DL5B /// KIR2DS1 /// KIR2DS2 /// KIR2DS3 /// KIR2DS4 /// KIR3DL3 /// KIR3DL3 /// KIR3DS1 (11738374_at) / Fold change /veh KIR2DL2 /// KIR2DL4 /// KIR2DL5A /// KIR2DL5B /// KIR2DS1 /// KIR2DS2 /// KIR2DS3 /// KIR2DS4 /// KIR3DL3 /// KIR3DL3 /// KIR3DS1 (11738374_at) / RFU C1QL1 (11718748_at) / Fold change /veh C1QL1 (11718748_at) / RFU TMPRSS4 (11747572_a_at) / Fold change /veh TMPRSS4 (11747572_a_at) / RFU HAMP (11756126_x_at) / Fold change /veh HAMP (11756126_x_at) / RFU RNFT2 (11725882_a_at) / Fold change /veh RNFT2 (11725882_a_at) / RFU NR4A2 (11747474_a_at) / Fold change /veh NR4A2 (11747474_a_at) / RFU ABCC12 (11746883_a_at) / Fold change /veh ABCC12 (11746883_a_at) / RFU TMEM136 (11760407_x_at) / Fold change /veh TMEM136 (11760407_x_at) / RFU CLDN22 /// WWC2 (11732394_at) / Fold change /veh CLDN22 /// WWC2 (11732394_at) / RFU HLA-DPB1 (11760878_x_at) / Fold change /veh HLA-DPB1 (11760878_x_at) / RFU SPINT1 (11716480_a_at) / Fold change /veh SPINT1 (11716480_a_at) / RFU GAP43 (11754022_s_at) / Fold change /veh GAP43 (11754022_s_at) / RFU A4GNT (11735810_at) / Fold change /veh A4GNT (11735810_at) / RFU PRB3 (11715151_x_at) / Fold change /veh PRB3 (11715151_x_at) / RFU TUBB4B (11761932_at) / Fold change /veh TUBB4B (11761932_at) / RFU CAPN14 (11732068_a_at) / Fold change /veh CAPN14 (11732068_a_at) / RFU TMCC2 (11721928_a_at) / Fold change /veh TMCC2 (11721928_a_at) / RFU IRGQ (11745062_a_at) / Fold change /veh IRGQ (11745062_a_at) / RFU FAM174B (11720279_a_at) / Fold change /veh FAM174B (11720279_a_at) / RFU TMPRSS4 (11748680_a_at) / Fold change /veh TMPRSS4 (11748680_a_at) / RFU FAM212B (11763350_a_at) / Fold change /veh FAM212B (11763350_a_at) / RFU PLEKHG5 (11743358_a_at) / Fold change /veh PLEKHG5 (11743358_a_at) / RFU ZSCAN30 (11745921_a_at) / Fold change /veh ZSCAN30 (11745921_a_at) / RFU CMKLR1 (11741424_a_at) / Fold change /veh CMKLR1 (11741424_a_at) / RFU LOC101060620 /// MAPK8IP1 (11723275_at) / Fold change /veh LOC101060620 /// MAPK8IP1 (11723275_at) / RFU SPTSSB (11747773_x_at) / Fold change /veh SPTSSB (11747773_x_at) / RFU PRSS12 (11739890_at) / Fold change /veh PRSS12 (11739890_at) / RFU BIN1 (11741810_x_at) / Fold change /veh BIN1 (11741810_x_at) / RFU WNT11 (11732464_a_at) / Fold change /veh WNT11 (11732464_a_at) / RFU C10orf10 (11716521_a_at) / Fold change /veh C10orf10 (11716521_a_at) / RFU C5orf56 (11738089_at) / Fold change /veh C5orf56 (11738089_at) / RFU CYB561 (11721691_x_at) / Fold change /veh CYB561 (11721691_x_at) / RFU ANKRD19P (11752326_a_at) / Fold change /veh ANKRD19P (11752326_a_at) / RFU OR2T12 /// OR2T33 /// OR2T8 (11738714_s_at) / Fold change /veh OR2T12 /// OR2T33 /// OR2T8 (11738714_s_at) / RFU VCAN (11748164_a_at) / Fold change /veh VCAN (11748164_a_at) / RFU JSRP1 (11732532_at) / Fold change /veh JSRP1 (11732532_at) / RFU KRTAP10-11 (11738290_x_at) / Fold change /veh KRTAP10-11 (11738290_x_at) / RFU MYO3A (11730013_a_at) / Fold change /veh MYO3A (11730013_a_at) / RFU EBF3 (11725865_a_at) / Fold change /veh EBF3 (11725865_a_at) / RFU CAMK2N1 (11719241_x_at) / Fold change /veh CAMK2N1 (11719241_x_at) / RFU C5orf56 (11738088_a_at) / Fold change /veh C5orf56 (11738088_a_at) / RFU OLFML3 (11715873_a_at) / Fold change /veh OLFML3 (11715873_a_at) / RFU LOC100653217 /// NTM (11731650_a_at) / Fold change /veh LOC100653217 /// NTM (11731650_a_at) / RFU MAPK11 (11762145_a_at) / Fold change /veh MAPK11 (11762145_a_at) / RFU FIZ1 (11724087_x_at) / Fold change /veh FIZ1 (11724087_x_at) / RFU OASL (11726364_x_at) / Fold change /veh OASL (11726364_x_at) / RFU SOX15 (11748057_x_at) / Fold change /veh SOX15 (11748057_x_at) / RFU CD79A (11719716_a_at) / Fold change /veh CD79A (11719716_a_at) / RFU HIST1H1D (11736915_at) / Fold change /veh HIST1H1D (11736915_at) / RFU CASKIN2 (11723855_a_at) / Fold change /veh CASKIN2 (11723855_a_at) / RFU LOC730098 (11760151_x_at) / Fold change /veh LOC730098 (11760151_x_at) / RFU OR4N2 (11742367_at) / Fold change /veh OR4N2 (11742367_at) / RFU PRRT2 (11749266_a_at) / Fold change /veh PRRT2 (11749266_a_at) / RFU SNX32 (11753110_a_at) / Fold change /veh SNX32 (11753110_a_at) / RFU CDHR5 (11726645_a_at) / Fold change /veh CDHR5 (11726645_a_at) / RFU RCAN1 (11760418_a_at) / Fold change /veh RCAN1 (11760418_a_at) / RFU FAM167A (11723789_a_at) / Fold change /veh FAM167A (11723789_a_at) / RFU FAM26E (11764081_at) / Fold change /veh FAM26E (11764081_at) / RFU ISYNA1 (11749810_s_at) / Fold change /veh ISYNA1 (11749810_s_at) / RFU ACY1 (11761880_at) / Fold change /veh ACY1 (11761880_at) / RFU 11764098_at / Fold change /veh 11764098_at / RFU SAMD14 (11745864_x_at) / Fold change /veh SAMD14 (11745864_x_at) / RFU NPB (11741838_a_at) / Fold change /veh NPB (11741838_a_at) / RFU TMPRSS6 (11731388_a_at) / Fold change /veh TMPRSS6 (11731388_a_at) / RFU KRTAP10-2 (11738614_at) / Fold change /veh KRTAP10-2 (11738614_at) / RFU ARHGAP8 /// PRR5-ARHGAP8 (11727945_x_at) / Fold change /veh ARHGAP8 /// PRR5-ARHGAP8 (11727945_x_at) / RFU KRTAP5-7 /// NADSYN1 (11734609_at) / Fold change /veh KRTAP5-7 /// NADSYN1 (11734609_at) / RFU RASL12 (11751679_a_at) / Fold change /veh RASL12 (11751679_a_at) / RFU CDKN2B (11736163_a_at) / Fold change /veh CDKN2B (11736163_a_at) / RFU PRF1 (11729649_at) / Fold change /veh PRF1 (11729649_at) / RFU, ZNF638 /// ZNF638-IT1 / Fold change vs veh, ZNF638 /// ZNF638-IT1 / RFU, PANK3 / Fold change vs veh, PANK3 / RFU, SH3YL1 / Fold change vs veh, SH3YL1 / RFU, ZEB2 / Fold change vs veh, ZEB2 / RFU, NRIP1 / Fold change vs veh, NRIP1 / RFU, PTTG1IP / Fold change vs veh, PTTG1IP / RFU, CAPN2 / Fold change vs veh, CAPN2 / RFU, MED14 / Fold change vs veh, MED14 / RFU, SNORA58 / Fold change vs veh, SNORA58 / RFU, C1orf63 / Fold change vs veh, C1orf63 / RFU, LRRFIP1 / Fold change vs veh, LRRFIP1 / RFU, NDUFAF7 / Fold change vs veh, NDUFAF7 / RFU, SLC12A2 / Fold change vs veh, SLC12A2 / RFU, IBTK / Fold change vs veh, IBTK / RFU, ESF1 / Fold change vs veh, ESF1 / Fold change vs veh, TMEM50B / RFU, TAOK1 / Fold change vs veh, TAOK1 / RFU, ACBD3 / Fold change vs veh, ACBD3 / RFU, TMA16 / Fold change vs veh, TMA16 / RFU, RWDD3 / Fold change vs veh, RWDD3 / RFU, BCAT1 / Fold change vs veh, BCAT1 / RFU, EDEM3 / Fold change vs veh, EDEM3 / RFU, TMEM33 / Fold change vs veh, TMEM33 / RFU, WDR75 / Fold change vs veh, WDR75 / RFU, AHCTF1 / Fold change vs veh, AHCTF1 / RFU, TFRC / Fold change vs veh, TFRC / RFU, ZDHHC17 / Fold change vs veh, ZDHHC17 / RFU, NOM1 / Fold change vs veh, NOM1 / RFU, ARL8B / Fold change vs veh, ARL8B / RFU, ZBTB11 / Fold change vs veh, ZBTB11 / RFU, TAMM41 / Fold change vs veh, TAMM41 / RFU, KIAA1704 /// LOC100996395 / Fold change vs veh, KIAA1704 /// LOC100996395 / RFU, ING1 / Fold change vs veh, ING1 / RFU, TRMT61B / Fold change vs veh, TRMT61B / RFU, FUBP3 / Fold change vs veh, FUBP3 / RFU, TP53 / Fold change vs veh, TP53 / RFU, TNKS2 / Fold change vs veh, TNKS2 / RFU, ZFP14 / Fold change vs veh, ZFP14 / RFU, ACTR2 / Fold change vs veh, ACTR2 / RFU, PPP3R1 / Fold change vs veh, PPP3R1 / RFU, PIK3R1 / Fold change vs veh, PIK3R1 / RFU, HNRNPA1 / Fold change vs veh, HNRNPA1 / RFU, RNF170 / Fold change vs veh, RNF170 / RFU, ZNF28 / Fold change vs veh, ZNF28 / RFU, RNGTT / Fold change vs veh, RNGTT / RFU, OGT / Fold change vs veh, OGT / RFU, BRD1 / Fold change vs veh, BRD1 / RFU, MARS / Fold change vs veh, MARS / RFU, ZNF655 / Fold change vs veh, ZNF655 / RFU, FAHD1 / Fold change vs veh, FAHD1 / RFU, BDP1 / Fold change vs veh, BDP1 / RFU, LRRCC1 / Fold change vs veh, LRRCC1 / RFU, ARID1A / Fold change vs veh, ARID1A / RFU, ZNF146 / Fold change vs veh, ZNF146 / RFU, ZNF330 / Fold change vs veh, ZNF330 / RFU, GPN3 / Fold change vs veh, GPN3 / RFU, C9orf123 / Fold change vs veh, C9orf123 / RFU, N4BP2L2 / Fold change vs veh, N4BP2L2 / RFU, ARFIP1 / Fold change vs veh, ARFIP1 / RFU, FAM179B / Fold change vs veh, FAM179B / RFU, BCL10 / Fold change vs veh, BCL10 / RFU, UHRF1BP1L / Fold change vs veh, UHRF1BP1L / RFU, BET1 / Fold change vs veh, BET1 / RFU, CNOT2 / Fold change vs veh, CNOT2 / RFU, ZNF268 / Fold change vs veh, ZNF268 / Fold change vs veh, ZNF507 / RFU, DGCR2 / Fold change vs veh, DGCR2 / RFU, WDSUB1 / Fold change vs veh, WDSUB1 / Fold change vs veh, HSP90B1 /// MIR3652 / RFU, ADSS / Fold change vs veh, ADSS / RFU, GK / Fold change vs veh, GK / RFU, ZNF148 / Fold change vs veh, ZNF148 / RFU, TAF9 / Fold change vs veh, TAF9 / RFU, SLC1A5 / Fold change vs veh, SLC1A5 / RFU, SLMO2 / Fold change vs veh, SLMO2 / RFU, ABCC4 / Fold change vs veh, ABCC4 / RFU, LOC101060439 /// RAP1B / Fold change vs veh, LOC101060439 /// RAP1B / RFU, RFX7 / Fold change vs veh, RFX7 / RFU, GTPBP10 / Fold change vs veh, GTPBP10 / RFU, CNEP1R1 / Fold change vs veh, CNEP1R1 / RFU, BIVM-ERCC5 /// ERCC5 / Fold change vs veh, BIVM-ERCC5 /// ERCC5 / RFU, ILF3 / Fold change vs veh, ILF3 / RFU 11762660_at / Fold change /veh 11762660_at / RFU VCAN (11757783_s_at) / Fold change /veh VCAN (11757783_s_at) / RFU DDX43 (11728927_at) / Fold change /veh DDX43 (11728927_at) / RFU KRT8 (11758188_x_at) / Fold change /veh KRT8 (11758188_x_at) / RFU NKD1 (11759106_at) / Fold change /veh NKD1 (11759106_at) / RFU SRD5A1 (11742802_a_at) / Fold change /veh SRD5A1 (11742802_a_at) / RFU TPSAB1 /// TPSB2 (11721975_s_at) / Fold change /veh TPSAB1 /// TPSB2 (11721975_s_at) / RFU GSTM3 (11746129_a_at) / Fold change /veh GSTM3 (11746129_a_at) / RFU IL23R (11737362_x_at) / Fold change /veh IL23R (11737362_x_at) / RFU TMEM51 (11727254_a_at) / Fold change /veh TMEM51 (11727254_a_at) / RFU PIWIL2 (11732686_x_at) / Fold change /veh PIWIL2 (11732686_x_at) / RFU ORM1 (11744905_x_at) / Fold change /veh ORM1 (11744905_x_at) / RFU CCDC152 (11743942_at) / Fold change /veh CCDC152 (11743942_at) / RFU ECM1 (11717891_a_at) / Fold change /veh ECM1 (11717891_a_at) / RFU IL23R (11748794_a_at) / Fold change /veh IL23R (11748794_a_at) / RFU TNFAIP8L3 (11732012_x_at) / Fold change /veh TNFAIP8L3 (11732012_x_at) / RFU MBOAT4 (11741988_at) / Fold change /veh MBOAT4 (11741988_at) / RFU 11764193_at / Fold change /veh 11764193_at / RFU TMEM53 (11763286_at) / Fold change /veh TMEM53 (11763286_at) / RFU MAGEB2 (11727129_at) / Fold change /veh MAGEB2 (11727129_at) / RFU TMEM200A (11744735_a_at) / Fold change /veh TMEM200A (11744735_a_at) / RFU CCDC152 (11751479_a_at) / Fold change /veh CCDC152 (11751479_a_at) / RFU FAM211A (11726209_a_at) / Fold change /veh FAM211A (11726209_a_at) / RFU RGS16 (11746705_a_at) / Fold change /veh RGS16 (11746705_a_at) / RFU VCAN (11755009_s_at) / Fold change /veh VCAN (11755009_s_at) / RFU RHOB (11743442_s_at) / Fold change /veh RHOB (11743442_s_at) / RFU RGS16 (11720943_a_at) / Fold change /veh RGS16 (11720943_a_at) / RFU RGS16 (11720944_at) / Fold change /veh RGS16 (11720944_at) / RFU, VPS4B / Fold change vs veh, VPS4B / RFU, CREB1 / Fold change vs veh, CREB1 / RFU, DNAJC13 / Fold change vs veh, DNAJC13 / RFU, GNAQ / Fold change vs veh, GNAQ / RFU, CDK5R1 / Fold change vs veh, CDK5R1 / RFU, ZRANB3 / Fold change vs veh, ZRANB3 / RFU, CUL4A / Fold change vs veh, CUL4A / RFU, CCNY / Fold change vs veh, CCNY / RFU, UFL1 / Fold change vs veh, UFL1 / RFU, COG3 / Fold change vs veh, COG3 / RFU, DIAPH2 / Fold change vs veh, DIAPH2 / RFU, SKA2 / Fold change vs veh, SKA2 / RFU, AFF3 / Fold change vs veh, AFF3 / RFU, LMF1 / Fold change vs veh, LMF1 / RFU, IPO11 / Fold change vs veh, IPO11 / RFU, DFFB / Fold change vs veh, DFFB / RFU, FOXP1 / Fold change vs veh, FOXP1 / RFU, CARD8 / Fold change vs veh, CARD8 / RFU, STRN3 / Fold change vs veh, STRN3 / RFU, ADK / Fold change vs veh, ADK / RFU, RASSF2 / Fold change vs veh, RASSF2 / RFU, WIPF1 / Fold change vs veh, WIPF1 / RFU, LARP1B / Fold change vs veh, LARP1B / RFU, RASA1 / Fold change vs veh, RASA1 / RFU, RB1 / Fold change vs veh, RB1 / RFU, PPFIA1 / Fold change vs veh, PPFIA1 / RFU, MAT2A / Fold change vs veh, MAT2A / RFU, CCT5 / Fold change vs veh, CCT5 / RFU, WDR92 / Fold change vs veh, WDR92 / RFU, CUX1 / Fold change vs veh, CUX1 / RFU, TTC7A / Fold change vs veh, TTC7A / RFU, TMEM135 / Fold change vs veh, TMEM135 / RFU, DEPTOR / Fold change vs veh, DEPTOR / RFU, CPM / Fold change vs veh, CPM / RFU, DNAJB6 / Fold change vs veh, DNAJB6 / RFU, CACNA2D3 / Fold change vs veh, CACNA2D3 / RFU, DTX4 / Fold change vs veh, DTX4 / RFU, TFCP2 / Fold change vs veh, TFCP2 / RFU, GMCL1 /// GMCL1P1 / Fold change vs veh, GMCL1 /// GMCL1P1 / RFU, AEBP2 / Fold change vs veh, AEBP2 / RFU, SNHG1 /// SNORD22 /// SNORD25 /// SNORD26 /// SNORD27 /// SNORD28 /// SNORD29 /// SNORD31 / Fold change vs veh, SNHG1 /// SNORD22 /// SNORD25 /// SNORD26 /// SNORD27 /// SNORD28 /// SNORD29 /// SNORD31 / Fold change (Aza/veh), C12orf56 (ProbeSet 11735607_a_at) / Fold change (ACY-1035/veh), C12orf56 (ProbeSet 11735607_a_at) / Fold change (Aza/veh), FGFR1OP (ProbeSet 11751329_s_at) / Fold change (ACY-1035/veh), FGFR1OP (ProbeSet 11751329_s_at) / Fold change (Aza/veh), VPS36 (ProbeSet 11739960_a_at) / Fold change (ACY-1035/veh), VPS36 (ProbeSet 11739960_a_at) / RFU SYPL1 (11715823_x_at) / Fold change /veh SYPL1 (11715823_x_at) / RFU IGFBP7 (11715501_s_at) / Fold change /veh IGFBP7 (11715501_s_at) / RFU REEP3 (11722064_at) / Fold change /veh REEP3 (11722064_at) / RFU IGLL1 (11728026_x_at) / Fold change /veh IGLL1 (11728026_x_at): dose or concentration left out as unconfirmed
Conditions: MV-4-11 cells, 48 hours

SMILES: Nc1ncn([C@@H]2O[C@H](CO)[C@@H](O)[C@H]2O)c(=O)n1 [azacitidine]
- Fold change /veh KRTAP10-11 (11738290_x_at): 1.14
